# From publication PMC8000041, “New Insights into the Metabolism of the Flavanones Eriocitrin and Hesperidin: A Comparative Human Pharmacokinetic Study” (Antioxidants, 2021)
# Assay: Urinary excretion of flavanone-derived metabolites after single intake of lemon or orange extract (UPLC-ESI-QTOF-MS)
# Assay type: in vivo, human
# Conditions: lemon extract (3.1 g, 260 mg eriocitrin), urine fraction 0-4 h, mean ± SD
# Text: Secondary endpoints involved the evaluation of post-prandial changes in several biomarkers dealing with metabolism, inflammation, and oxidative stress after a high-fat-high-sugars meal. The design was a randomized pharmacokinetic, double-blind, crossover, single-dose trial consisted of 2 test-phases. The volunteers were randomly allocated into two groups using a computerized random number list. Each group consumed one of the citrus extracts by following a test-phase that lasted for 1 day for blood sampling and urine collection, a 2-week washout period between each test phase, and crossover before consuming the other extract. The volunteers were instructed to avoid the consumption of flavanone-containing products, from a list provided by the researchers, for 1 week before the study and during the wash-out phase (citrus fruit juices, tomatoes, tomato-based sauces (like ‘ketchup’), peppers, almonds, etc.). […] The 3 capsules provided a total of 1.95 g orange extract, containing 260 mg hesperidin, and 3.1 g lemon extract, containing 260 mg eriocitrin. […] Untreated urine samples were aliquoted and frozen at −80 °C for up to 4 weeks until analyses, avoiding freeze-thaw cycles to avoid metabolites’ deconjugation. Moreover, three measurements of blood pressure and heart rate were taken before each time-point of blood withdrawal. […] A previously validated method for analyzing phenolic metabolites in biological samples, including flavanone-derived metabolites, was used. […] After centrifugation at 14,000× g for 10 min at 4 °C, the supernatant was evaporated in a speed vacuum concentrator. Finally, samples were re-suspended in 100 µL of methanol, filtered through a 0.22 µm cellulose filters before analysis by UPLC- ESI-QTOF-MS. […] A targeted screening strategy was applied to identify metabolites that could be present after consuming the citrus extracts. Twenty-eight possible compounds were browsed in all the samples. The list of compounds included the polyphenols present in the extracts, with particular focus on the flavanone rutinosides hesperidin and eriocitrin, their respective aglycones hesperetin, and eriodictyol, as well as their derived phase-II conjugates (glucuronides, sulfates, sulfoglucuronides, etc.). The exact mass of each proposed compound was extracted using an extraction window of 0.01 m/z. The metabolites hesperetin 7-O-glucuronide, hesperetin 3′-O-glucuronide, hesperetin 3-O-sulfate, naringenin 4′-O-glucuronide, and naringenin 7′-O-glucuronide were quantified with their corresponding standards. […] The parent phenolic compounds were quantified with their corresponding standards. In the case of some relevant conjugated metabolites, which standards were not available (eriodictyol and homoeriodictyol conjugates), their quantification was achieved by using relative response factors (RRFs) as previously described. Briefly, RRFs are useful to check the different responses of metabolites in the mass spectrometer vs. their UV signal. While the ionization response of free vs. conjugated forms is usually very different, their UV signal response is quite similar. To this purpose, we injected in a HPLC-DAD-ESI-Q (MS) the plasma samples (n = 5) with the highest concentrations of those conjugated metabolites. Concentrations were calculated by integrating the area from their corresponding UV peaks and compared with the UV peak area of a known concentration of their corresponding available parent compounds (eriodictyol and homoeriodictyol). The concentrations calculated were used to compare the MS response for each conjugated-aglycone pair.
row,Compound,Urinary excretion F1 [µg/mg creatinine]
1,"O=C1CC(c2ccc(O)c(O)c2)Oc2cc(OC3OC(C(=O)O)C(O)C(O)C3O)cc(O)c21 (centres unmarked) [M1, Eriodictyol glucuronide-1]",3.2 ± 5.9

# Same assay, conditions: lemon extract, sum of fractions F1-F4 (24 h), mean ± SD
row,Compound,Urinary excretion Total F [µg/mg creatinine]
1,"O=C1CC(c2ccc(O)c(O)c2)Oc2cc(OC3OC(C(=O)O)C(O)C(O)C3O)cc(O)c21 (centres unmarked) [M1, Eriodictyol glucuronide-1]",18.0 ± 28.4

# Same assay, conditions: lemon extract, urine fraction 4-8 h, mean ± SD
row,Compound,Urinary excretion F2 [µg/mg creatinine]
1,"O=C1CC(c2ccc(O)c(O)c2)Oc2cc(OC3OC(C(=O)O)C(O)C(O)C3O)cc(O)c21 (centres unmarked) [M1, Eriodictyol glucuronide-1]",9.6 ± 15.5

# Same assay, conditions: lemon extract, urine fraction 8-10 h, mean ± SD
row,Compound,Urinary excretion F3 [µg/mg creatinine]
1,"O=C1CC(c2ccc(O)c(O)c2)Oc2cc(OC3OC(C(=O)O)C(O)C(O)C3O)cc(O)c21 (centres unmarked) [M1, Eriodictyol glucuronide-1]",4.5 ± 6.2

# Same assay, conditions: lemon extract, urine fraction 10-24 h, mean ± SD
row,Compound,Urinary excretion F4 [µg/mg creatinine]
1,"O=C1CC(c2ccc(O)c(O)c2)Oc2cc(OC3OC(C(=O)O)C(O)C(O)C3O)cc(O)c21 (centres unmarked) [M1, Eriodictyol glucuronide-1]",0.7 ± 0.7

# Same assay, conditions: orange extract, sum of fractions F1-F4 (24 h), mean ± SD
row,Compound,Urinary excretion Total F [µg/mg creatinine]
1,"O=C1CC(c2ccc(O)c(O)c2)Oc2cc(OC3OC(C(=O)O)C(O)C(O)C3O)cc(O)c21 (centres unmarked) [M1, Eriodictyol glucuronide-1]",0.6 ± 0.4

# Same assay, conditions: orange extract, urine fraction 4-8 h, mean ± SD
row,Compound,Urinary excretion F2 [µg/mg creatinine]
1,"O=C1CC(c2ccc(O)c(O)c2)Oc2cc(OC3OC(C(=O)O)C(O)C(O)C3O)cc(O)c21 (centres unmarked) [M1, Eriodictyol glucuronide-1]",0.4 ± 0.3

# Same assay, conditions: orange extract, urine fraction 8-10 h, mean ± SD
row,Compound,Urinary excretion F3 [µg/mg creatinine]
1,"O=C1CC(c2ccc(O)c(O)c2)Oc2cc(OC3OC(C(=O)O)C(O)C(O)C3O)cc(O)c21 (centres unmarked) [M1, Eriodictyol glucuronide-1]",0.1 ± 0.1

# Same assay, conditions: orange extract, urine fraction 10-24 h, mean ± SD
row,Compound,Urinary excretion F4 [µg/mg creatinine]
1,"O=C1CC(c2ccc(O)c(O)c2)Oc2cc(OC3OC(C(=O)O)C(O)C(O)C3O)cc(O)c21 (centres unmarked) [M1, Eriodictyol glucuronide-1]",0.05 ± 0.05

# Same assay, conditions: urine, after consuming lemon extract, n = 16 volunteers
row,Compound,Occurrence Urine LE (number of volunteers in whom the metabolite was detected)
1,"O=C1CC(c2ccc(O)c(O)c2)Oc2cc(OC3OC(C(=O)O)C(O)C(O)C3O)cc(O)c21 (centres unmarked) [M1, Eriodictyol glucuronide-1]",16

# Same assay, conditions: urine, after consuming orange extract, n = 16 volunteers
row,Compound,Occurrence Urine OE (number of volunteers in whom the metabolite was detected)
1,"O=C1CC(c2ccc(O)c(O)c2)Oc2cc(OC3OC(C(=O)O)C(O)C(O)C3O)cc(O)c21 (centres unmarked) [M1, Eriodictyol glucuronide-1]",5

# Assay: Plasma metabolites and pharmacokinetics after single intake of lemon or orange extract (UPLC-ESI-QTOF-MS, non-compartmental analysis)
# Assay type: in vivo, human
# Conditions: after consuming lemon extract, n = 16 volunteers
# Text: Secondary endpoints involved the evaluation of post-prandial changes in several biomarkers dealing with metabolism, inflammation, and oxidative stress after a high-fat-high-sugars meal. The design was a randomized pharmacokinetic, double-blind, crossover, single-dose trial consisted of 2 test-phases. The volunteers were randomly allocated into two groups using a computerized random number list. Each group consumed one of the citrus extracts by following a test-phase that lasted for 1 day for blood sampling and urine collection, a 2-week washout period between each test phase, and crossover before consuming the other extract. The volunteers were instructed to avoid the consumption of flavanone-containing products, from a list provided by the researchers, for 1 week before the study and during the wash-out phase (citrus fruit juices, tomatoes, tomato-based sauces (like ‘ketchup’), peppers, almonds, etc.). […] The 3 capsules provided a total of 1.95 g orange extract, containing 260 mg hesperidin, and 3.1 g lemon extract, containing 260 mg eriocitrin. […] Plasma samples were obtained by centrifugation of peripheral venous blood at 14,000× g for 15 min at 4 °C and immediately frozen at −80 °C. Glucose, total cholesterol, HDL-cholesterol, LDL-cholesterol, triglycerides, insulin, homeostatic model assessment insulin resistance (HOMA-IR), gamma-glutamyl transferase (GGT), and alanine aminotransferase (ALT) were determined as previously reported. […] A previously validated method for analyzing phenolic metabolites in biological samples, including flavanone-derived metabolites, was used. […] After centrifugation at 14,000× g for 10 min at 4 °C, the supernatant was evaporated in a speed vacuum concentrator. Finally, samples were re-suspended in 100 µL of methanol, filtered through a 0.22 µm cellulose filters before analysis by UPLC- ESI-QTOF-MS. A targeted screening strategy was applied to identify metabolites that could be present after consuming the citrus extracts. Twenty-eight possible compounds were browsed in all the samples. The list of compounds included the polyphenols present in the extracts, with particular focus on the flavanone rutinosides hesperidin and eriocitrin, their respective aglycones hesperetin, and eriodictyol, as well as their derived phase-II conjugates (glucuronides, sulfates, sulfoglucuronides, etc.). The exact mass of each proposed compound was extracted using an extraction window of 0.01 m/z. The metabolites hesperetin 7-O-glucuronide, hesperetin 3′-O-glucuronide, hesperetin 3-O-sulfate, naringenin 4′-O-glucuronide, and naringenin 7′-O-glucuronide were quantified with their corresponding standards. […] The parent phenolic compounds were quantified with their corresponding standards. In the case of some relevant conjugated metabolites, which standards were not available (eriodictyol and homoeriodictyol conjugates), their quantification was achieved by using relative response factors (RRFs) as previously described. Briefly, RRFs are useful to check the different responses of metabolites in the mass spectrometer vs. their UV signal. While the ionization response of free vs. conjugated forms is usually very different, their UV signal response is quite similar. To this purpose, we injected in a HPLC-DAD-ESI-Q (MS) the plasma samples (n = 5) with the highest concentrations of those conjugated metabolites. Concentrations were calculated by integrating the area from their corresponding UV peaks and compared with the UV peak area of a known concentration of their corresponding available parent compounds (eriodictyol and homoeriodictyol). The concentrations calculated were used to compare the MS response for each conjugated-aglycone pair. Statistical analyses were carried out using the SPSS Software, version 23.0 (SPSS Inc., Chicago, IL, USA). Data are expressed as mean ± SD. The empirical distribution of data with the normality assumption was tested with the Shapiro-Wilk test. […]
row,Compound,Occurrence Plasma LE (number of volunteers in whom the metabolite was detected)
1,"O=C1CC(c2ccc(O)c(O)c2)Oc2cc(OC3OC(C(=O)O)C(O)C(O)C3O)cc(O)c21 (centres unmarked) [M1, Eriodictyol glucuronide-1]",16

# Same assay, conditions: after consuming orange extract, n = 16 volunteers
row,Compound,Occurrence Plasma OE (number of volunteers in whom the metabolite was detected)
1,"O=C1CC(c2ccc(O)c(O)c2)Oc2cc(OC3OC(C(=O)O)C(O)C(O)C3O)cc(O)c21 (centres unmarked) [M1, Eriodictyol glucuronide-1]",3

# Same assay, conditions: after lemon extract, mean ± SD
row,Compound,Tmax [h]
1,"O=C1CC(c2ccc(O)c(O)c2)Oc2cc(OC3OC(C(=O)O)C(O)C(O)C3O)cc(O)c21 (centres unmarked) [M1, Eriodictyol glucuronide-1]",5.9 ± 2.4

# Same assay, conditions: human, oral, 3.1 g, after lemon extract, mean ± SD
row,Compound,Cmax [nM]
1,"O=C1CC(c2ccc(O)c(O)c2)Oc2cc(OC3OC(C(=O)O)C(O)C(O)C3O)cc(O)c21 (centres unmarked) [M1, Eriodictyol glucuronide-1]",104 ± 85.8

# Same assay, conditions: human, oral, 3.1 g, after lemon extract, mean ± SD, read-out: AUC0-t
row,Compound,AUC(0-t) [µM·h]
1,"O=C1CC(c2ccc(O)c(O)c2)Oc2cc(OC3OC(C(=O)O)C(O)C(O)C3O)cc(O)c21 (centres unmarked) [M1, Eriodictyol glucuronide-1]",0.283 ± 0.271

# Same assay, conditions: human, oral, 3.1 g, after lemon extract, mean ± SD, read-out: Tmax
row,Compound,Tmax [h]
1,"O=C1CC(c2ccc(O)c(O)c2)Oc2cc(OC3OC(C(=O)O)C(O)C(O)C3O)cc(O)c21 (centres unmarked) [M1, Eriodictyol glucuronide-1]",6
